Read-outs that look alike come from different tables or passages of the source.
Experiments:
rgRSV224 virus = assay: microbe, parasite or virus in culture; type: cell-based, respiratory syncytial virus (RSV); details: for SI CC50/EC50: ratio of CC50 (HeLa cytotoxicity) to EC50 (RSV)
Protocol: (§1) Black 96-well clear-bottom microtiter plates (Corning, Amsterdam, The Netherlands) were filled in duplicate using a customized robot system with serial 4-fold dilutions of compound in a final volume of 50 μl culture medium [RPMI medium without phenol red, 10% FBS, 0.04% gentamycin (50 mg/mL) and 0.5% DMSO]. Then, 100 μl of a HeLa cell suspension (5×10^4 cells/mL) in culture medium was added to each well followed by the addition of 50 μl rgRSV224 (MOI=0.02) virus in culture medium using a multidrop dispenser (Thermo Scientific, Erembodegem, Belgium). rgRSV224 virus is an engineered virus that includes an additional GFP gene (Hallak et al, 2000) and was in-licensed from the NIH (Bethesda, Md., USA). Medium, virus- and mock-infected controls were included in each test. Cells were incubated at 37° C. in a 5% CO2 atmosphere. Three days post-virus exposure, viral replication was quantified by measuring GFP expression in the cells by a MSM laser microscope (Tibotec, Beerse, Belgium). The EC50 was defined as the 50% inhibitory concentration for GFP expression. In parallel, compounds were incubated for three days in a set of white 96-well microtitier plates (Corning) and the cytotoxicity of compounds in HeLa cells was determined by measuring the ATP content of the cells using the ATPlite kit (PerkinElmer, Zaventem, Belgium) according to the manufacturer's instructions. The CC50 was defined as the 50% concentration for cytotoxicity.

HeLa cells = assay: Cytotoxicity in HeLa cells, ATP content (ATPlite kit); type: cell-based; details: HeLa cells, three days incubation, ATP content
Protocol: as §1

[1] = human respiratory syncytial virus, HeLa, 72 h, read-out: RSV-wt_EC50
[2] = human respiratory syncytial virus, HeLa, 72 h, read-out: WT activity EC50
[3] = rgRSV224 in HeLa cells, three days post-virus exposure, GFP expression, read-out: WT activity EC50

SMILES	EC50 (rgRSV224 virus; [1]) [nM]	TOX-HELA_EC50 (HeLa cells) [µM]	EC50 (rgRSV224 virus; [2]) [nM]	SI CC50/EC50 (rgRSV224 virus)	EC50 (rgRSV224 virus; [3]) [nM]
CC(C)CCn1c(Cn2c(=O)n(C3CC3)c3ccncc32)nc2nc(Cl)ccc21 [Compound 1, 3-((5-chloro-1-isopentyl-1H-imidazo[4,5-b]pyridin-2-yl)methyl)-1-cyclopropyl-1H-imidazo[4,5-c]pyridin-2(3H)-one]	0.365	>9.836			
CC(C)CCn1c(Cn2c(=O)n(C3COC3)c3ccncc32)nc2nc(Cl)ccc21 [Compound 2, 3-((5-chloro-1-isopentyl-1H-imidazo[4,5-b]pyridin-2-yl)methyl)-1-(oxetan-3-yl)-1H-imidazo[4,5-c]pyridin-2(3H)-one]	1.58	>9.836			
CC(C)(C)C(=O)OCCCCn1c(Cn2c(=O)n(C3CC3)c3ccncc32)nc2nc(Cl)ccc21 [Compound 3, 4-(5-chloro-2-((1-cyclopropyl-2-oxo-1H-imidazo[4,5-c]pyridin-3(2H)-yl)methyl)-1H-imidazo[4,5-b]pyridin-1yl)butyl pivalate]	3.29	>9.836			
CC(C)CCn1c(Cn2c(=O)n(C3CC3)c3ccccc32)nc2cc(Br)cnc21 [Compound 30, 1-((6-bromo-3-isopentyl-3H-imidazo[4,5-b]pyridin-2-yl)methyl)-3-cyclopropyl-1H-benzo[d]imidazol-2(3H)-one]		>9.84			
O=c1n(Cc2nc3ncccc3n2CCCC(F)F)c2cnccc2n1C1CC1 [Compound 43, 1-cyclopropyl-3-((1-(4,4-difluorobutyl)-1H-imidazo[4,5-b]pyridin-2-yl)methyl)-1H-imidazo[4,5-c]pyridin-2(3H)-one]			7.91	7161	
N#CCCCn1c(Cn2c(=O)n(C3CC3)c3ccncc32)nc2ccc(Cl)nc21 [Compound 49]			1450	>68	
COC(=O)c1nccc2c1n(Cc1nc3nc(Cl)ccc3n1CCCCO)c(=O)n2C1CC1 [Compound 62]			294	>339	
CC(=O)OCCCCn1c(Cn2c(=O)n(C3CC3)c3ccncc32)nc2nc(Cl)ccc21 [Compound 64]				>18058	5.54
CC(C)C(=O)OCCCCn1c(Cn2c(=O)n(C3CC3)c3ccncc32)nc2nc(Cl)ccc21 [Compound 65]				>18110	5.52
O=C1c2ccccc2C(=O)N1CCCCn1c(Cn2c(=O)n(C3CC3)c3ccncc32)nc2nc(Cl)ccc21 [Compound 66]				>16939	5.9
CC(O)CCCn1c(Cn2c(=O)n(C3CC3)c3ccncc32)nc2nc(Cl)ccc21 (stereo not shown) [Compound 67, 3-{[5-chloro-1-(4-hydroxypentyl)-1H-imidazo[4,5-b]pyridin-2-yl]methyl}-1-cyclopropyl-1,3-dihydro-2H-imidazo[4,5-c]pyridin-2-one]			7.91	>12643	
COC(=O)NCCCCn1c(Cn2c(=O)n(C3CC3)c3ccncc32)nc2nc(Cl)ccc21 [Compound 68]				>12208	8.19
O=c1n(Cc2nc3nc(F)ccc3n2CCCC(F)(F)F)c2cnccc2n1C1CC1 [Compound 69]				>1318	75.8
O=c1n(Cc2nc3ncccc3n2CCCOC(F)(F)F)c2cnccc2n1C1CC1 [Compound 70]				>9116	11
O=c1n(Cc2nc3nc(Cl)ccc3n2CCCC(F)(F)F)c2cnccc2n1CC(F)(F)F [Compound 71]				>108383	0.923
O=c1n(Cc2nc3ncccc3n2CCCC(F)(F)F)c2cnccc2n1CC(F)(F)F [Compound 72]				>2766	3.61
NC(=O)NCCCCn1c(Cn2c(=O)n(C3CC3)c3ccncc32)nc2nc(Cl)ccc21 [Compound 74]				>1997	5.01
CC(C)(O)CCCn1c(Cn2c(=O)n(C3CC3)c3ccncc32)nc2nc(Cl)ccc21 [Compound 75, 3-((5-chloro-1-(4-hydroxy-4-methylpentyl)-1H-imidazo[4,5-b]pyridin-2-yl)methyl)-1-cyclopropyl-1H-imidazo[4,5-c]pyridin-2 (3H)-one]			1.58	>63325	
O=C(NCCCCn1c(Cn2c(=O)n(C3CC3)c3ccncc32)nc2nc(Cl)ccc21)OCCF [Compound 76]				>24518	4.08

SMILES	EC50 (rgRSV224 virus; [1]) [nM]	TOX-HELA_EC50 (HeLa cells) [µM]	EC50 (rgRSV224 virus; [2]) [nM]	SI CC50/EC50 (rgRSV224 virus)	EC50 (rgRSV224 virus; [3]) [nM]
O=C(NC1CCCC1)OCCCCn1c(Cn2c(=O)n(C3CC3)c3ccncc32)nc2nc(Cl)ccc21 [Compound 78]				14406	5.73
COc1ccc(NC(=O)OCCCCn2c(Cn3c(=O)n(C4CC4)c4ccncc43)nc3nc(Cl)ccc32)cc1 [Compound 79]				1711	23.3
CC1=C(NCCCCn2c(Cn3c(=O)n(C4CC4)c4ccncc43)nc3nc(Cl)ccc32)c2ccccc2S1(=O)=O [Compound 80]				>9628	10.4
CC(C)OC(=O)NCCCCn1c(Cn2c(=O)n(C3CC3)c3ccncc32)nc2ncccc21 [Compound 81]				>1380	72.4
O=C(NCCCCn1c(Cn2c(=O)n(C3CC3)c3ccncc32)nc2nc(Cl)ccc21)OC1CCCC1 [Compound 82]				5649	17.1
O=C(Nc1ccc(F)cc1C(F)(F)F)OCCCCn1c(Cn2c(=O)n(C3CC3)c3ccncc32)nc2nc(Cl)ccc21 [Compound 83]				4731	14
O=C(Nc1ccc(F)c(Cl)c1)OCCCCn1c(Cn2c(=O)n(C3CC3)c3ccncc32)nc2nc(Cl)ccc21 [Compound 84]				354	18.9
O=c1n(Cc2nc3ncccc3n2CCCCF)c2cnccc2n1CC(F)(F)F [Compound 85]				1436	8.54
O=C(Nc1ccc(Cl)cc1)OCCCCn1c(Cn2c(=O)n(C3CC3)c3ccncc32)nc2nc(Cl)ccc21 [Compound 86]				263	36.8
O=c1n(Cc2nc3nc(Cl)ccc3n2CCCC(F)(F)F)c2cc(F)ccc2n1CC(F)(F)F [Compound 87]				>49069	2.04
CC(C)(CO)CCn1c(Cn2c(=O)n(C3CC3)c3ccncc32)nc2nc(Cl)ccc21 [Compound 88]				>4517	11.1
O=c1n(Cc2nc3ncccc3n2CCCC(F)(F)F)c2cc(F)ccc2n1CC(F)(F)F [Compound 89]				>2037	49.1
CC(C)CCn1c(Cn2c(=O)n(CC(F)(F)F)c3ccncc32)nc2nc(Cl)ccc21 [Compound 90]				36156	2.6
O=c1n(Cc2nc3ncccc3n2CCCc2ccccc2)c2cnccc2n1C1CC1 [Compound 91]				>8223	12.2
CC(C)CCn1c(Cn2c(=O)n(CC(F)(F)F)c3ccc(F)cc32)nc2nc(Cl)ccc21 [Compound 92]				13572	6.72
O=c1n(Cc2nc3ncccc3n2CCCc2ccccc2)c2cc(F)ccc2n1C1CC1 [Compound 93]				>3176	31.5
O=c1n(Cc2nc3ncccc3n2CCCc2ccccn2)c2cnccc2n1C1CC1 [Compound 94]				>748	126
CC(C)CCn1c(Cn2c(=O)n(C3CC3)c3ccncc32)nc2nc(C(=N)N)ccc21 [Compound 105]			0.316	>330179	
